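Exposure lasted 48 hours, with cells grown in 96-well plates and compounds tested at five concentrations. At the GI50, growth is halved.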 Calls of active or inactive are those of the source. No stated cut-off is given here; in the data, active = GI50 up to about 1.1 µM and inactive = higher.
Experiments:
Experiment in all cases: NCI-60 cell line screen, 48 h
A549 = system: A549
ACHN = system: ACHN
EKVX = system: EKVX
HCT-15 = system: HCT-15
HL-60 = system: HL-60
Hs-578T = system: Hs-578T
KM12 = system: KM12
MDA-MB-435 = system: MDA-MB-435
NCI-H23 = system: NCI-H23
NCI-H460 = system: NCI-H460
NCI-H522 = system: NCI-H522
OVCAR-3 = system: OVCAR-3
SF-295 = system: SF-295
SF-539 = system: SF-539
SK-MEL-28 = system: SK-MEL-28
SK-MEL-5 = system: SK-MEL-5
SNB-75 = system: SNB-75
SW-620 = system: SW-620
U-251 = system: U-251
UACC-257 = system: UACC-257

For CC(=O)c1sc2c(c1OC(=O)c1ccccc1)c(=O)n(-c1ccccc1)c(=S)n2-c1ccccc1, the GI50 (A549) was 35.3 µM (inactive), the GI50 (ACHN) was 3.03 µM (inactive) and the GI50 (EKVX) was 15.9 µM (inactive). For the same compound, the GI50 (HCT-15) was 18 µM, the GI50 (HL-60) was 34 µM (inactive) and the GI50 (Hs-578T) was 3.74 µM (inactive). For the same compound, the GI50 (KM12) was 33.1 µM (inactive), the GI50 (MDA-MB-435) was 4.24 µM (inactive) and the GI50 (NCI-H23) was 27.3 µM (inactive). The GI50 (NCI-H460) was 11.2 µM (inactive), the GI50 (NCI-H522) was 28.6 µM (inactive) and the GI50 (OVCAR-3) was 17.9 µM (inactive). For the same compound, the GI50 (SF-295) was 2.48 µM (inactive), the GI50 (SF-539) was 2.32 µM (inactive) and the GI50 (SK-MEL-28) was 3.89 µM (inactive). The GI50 (SK-MEL-5) was 5.62 µM (inactive), the GI50 (SNB-75) was 2.26 µM (inactive) and the GI50 (SW-620) was 15.2 µM (inactive). For the same compound, the GI50 (U-251) was 3.94 µM (inactive) and the GI50 (UACC-257) was 4.38 µM (inactive).
For CC(=O)C1=C(O)/C(=C\c2ccco2)OC1=O, the GI50 (A549) was > 10 µM (inactive), the GI50 (ACHN) was > 10 µM (inactive) and the GI50 (EKVX) was > 10 µM (inactive). The GI50 (HCT-15) was over 10 µM, the GI50 (HL-60) was > 10 µM (inactive) and the GI50 (Hs-578T) was > 10 µM (inactive). The GI50 (KM12) was > 10 µM (inactive), the GI50 (MDA-MB-435) was > 10 µM (inactive) and the GI50 (NCI-H23) was > 10 µM (inactive). The GI50 (NCI-H460) was > 10 µM (inactive), the GI50 (NCI-H522) was > 10 µM (inactive) and the GI50 (OVCAR-3) was > 10 µM (inactive). For the same compound, the GI50 (SF-295) was > 10 µM (inactive), the GI50 (SF-539) was > 10 µM (inactive) and the GI50 (SK-MEL-28) was > 10 µM (inactive). For the same compound, the GI50 (SK-MEL-5) was > 10 µM (inactive), the GI50 (SNB-75) was > 10 µM (inactive) and the GI50 (SW-620) was > 10 µM (inactive). For the same compound, the GI50 (U-251) was > 10 µM (inactive) and the GI50 (UACC-257) was > 10 µM (inactive).
With [BH3-][P+]1(CC[P@@+]([BH3-])(c2ccccc2)c2ccccc2OC)[C@@H](C)[C@@H](O)[C@H](O)[C@@H]1C (stereo not given in full) the GI50 (A549) was 14.1 µM (inactive), the GI50 (ACHN) was 17.6 µM (inactive) and the GI50 (EKVX) was 12.4 µM (inactive). The GI50 (HCT-15) was 17.5 µM, the GI50 (HL-60) was 23.2 µM (inactive) and the GI50 (Hs-578T) was 10.3 µM (inactive). The GI50 (KM12) was 15.8 µM (inactive), the GI50 (MDA-MB-435) was 16.7 µM (inactive) and the GI50 (NCI-H23) was 16 µM (inactive). The GI50 (NCI-H460) was 16.4 µM (inactive), the GI50 (NCI-H522) was 12.4 µM (inactive) and the GI50 (OVCAR-3) was 16.1 µM (inactive). The GI50 (SF-295) was 15.8 µM (inactive), the GI50 (SF-539) was 16.5 µM (inactive) and the GI50 (SK-MEL-28) was 17.9 µM (inactive). For the same compound, the GI50 (SK-MEL-5) was 15.7 µM (inactive), the GI50 (SNB-75) was 14.8 µM (inactive) and the GI50 (SW-620) was 16.9 µM (inactive). The GI50 (U-251) was 16.9 µM (inactive) and the GI50 (UACC-257) was 4.19 µM (inactive).
Cc1cc(OCc2nc(N)nc(N)c2-c2ccc(Cl)c(Cl)c2)ccc1[N+](=O)[O-] was tested, and the GI50 (A549) was 0.0352 µM (active), the GI50 (ACHN) was 0.0746 µM (active) and the GI50 (EKVX) was 0.953 µM (active). The GI50 (HCT-15) was 0.0893 µM, the GI50 (HL-60) was 0.356 µM (active) and the GI50 (Hs-578T) was 12.2 µM (inactive). For the same compound, the GI50 (KM12) was 0.692 µM (active), the GI50 (MDA-MB-435) was 0.0721 µM (active) and the GI50 (NCI-H23) was 0.141 µM (active). For the same compound, the GI50 (NCI-H460) was 0.0462 µM (active), the GI50 (NCI-H522) was 0.893 µM (active) and the GI50 (OVCAR-3) was 0.282 µM (active). The GI50 (SF-295) was 0.0678 µM (active), the GI50 (SF-539) was 0.451 µM (active) and the GI50 (SK-MEL-28) was 0.531 µM (active). For the same compound, the GI50 (SK-MEL-5) was 0.224 µM (active), the GI50 (SNB-75) was 2.1 µM (inactive) and the GI50 (SW-620) was 0.235 µM (active). For the same compound, the GI50 (U-251) was 0.0889 µM (active) and the GI50 (UACC-257) was 0.0451 µM (active).
CC(C)=CCC/C(C)=C/Cc1cc(/C=C/c2cc(O)c(CC=C(C)C)c(O)c2)cc(O)c1O [MAPPAIN] was tested, and the GI50 (A549) was 4.72 µM (inactive), the GI50 (ACHN) was 1.48 µM (inactive) and the GI50 (EKVX) was 2.96 µM (inactive). For the same compound, the GI50 (HCT-15) was 3.05 µM, the GI50 (HL-60) was 0.502 µM (active) and the GI50 (Hs-578T) was 10.8 µM (inactive). For the same compound, the GI50 (KM12) was 4.29 µM (inactive), the GI50 (MDA-MB-435) was 2.55 µM (inactive) and the GI50 (NCI-H23) was 3.31 µM (inactive). The GI50 (NCI-H460) was 2.68 µM (inactive), the GI50 (NCI-H522) was 0.141 µM (active) and the GI50 (OVCAR-3) was 1.99 µM (inactive). The GI50 (SF-295) was 4.65 µM (inactive), the GI50 (SF-539) was 3.79 µM (inactive) and the GI50 (SK-MEL-28) was 5.18 µM (inactive). For the same compound, the GI50 (SK-MEL-5) was 2.12 µM (inactive), the GI50 (SNB-75) was 2.58 µM (inactive) and the GI50 (SW-620) was 3.54 µM (inactive). For the same compound, the GI50 (U-251) was 2.18 µM (inactive) and the GI50 (UACC-257) was 1.67 µM (inactive).

Source: ChEMBL document CHEMBL1201862, “PubChem BioAssay data set” (2004)
